Values of other authors, collected in patent US20090320148A1, “OXYLIPINS FROM STEARIDONIC ACID AND GAMMA-LINOLENIC ACID AND METHODS OF MAKING AND USING THE SAME” (MARTEK BIOSCIENCES CORPORATION, priority 2006, published 2009).

Experiments:
cell migration = settings: comparison with the DHA-derived oxylipin

Row | Compound | secretion of the pro-inflammatory cytokine IL-1β (IL-1β) | potency for inhibiting cell migration (cell migration) | reduction of IL-1β secretion compared with DHA oxylipin derivative and indomethacin (IL-1β; comparison with DHA oxylipin derivative and indomethacin) | potency for reduction in IL-1β secretion (IL-1β; comparison with the DHA oxylipin)
1 | CCCCCC(O)/C=C/C=C\C/C=C\C/C=C\C/C=C\CCC(=O)O (centres unmarked) [17-hydroxy DPAn-6] | significantly reduced | more potent than the DHA-derived oxylipin | – | –
2 | 10,17-dihydroxy DPAn-6 | significantly reduced | – | significantly larger than with that produced by either the DHA oxylipin derivative or the general anti-inflammatory agent, indomethacin | more potent than the DHA oxylipin
